Assay results as given in US20190030036A1, “PHOSPHODIESTERASE INHIBITOR TREATMENT” (Cyrano Therapeutics, Inc., priority 2013, published 2019).
Marks after values point to notes of the source that are not given here.

System: patients with hyposmia
Assay: Smell function (DT, RT, ME, H) by forced-choice, three-stimuli, stepwise-staircase technique with four odors; open trial of oral theophylline
Assay type: in vivo, human
From the text: Patients initially reported their sensory dysfunction as either loss of taste (e.g., flavor) and/or smell function. This subjective response was documented by objective psychophysical measurements of olfactory function administered to each patient by use of a forced-choice, three-stimuli, stepwise-staircase technique in a fixed, controlled design (1, 53). Efficacy of this technique and results of testing were previously documented in a double-blind clinical trial (53). Four odors were used; they were pyridine (dead-fish odor), nitrobenzene (bitter-almond odor), thiophene (petroleum-like odor) and amyl acetate (banana-oil odor). Detection thresholds (DT), recognition thresholds (RT) and magnitude estimation (ME) values for each odor were determined as previously described (1, 53). Thresholds were converted into bottle units (BU) as previously described (53) and results reported as M±SEM of correct responses for each odor in each treatment group; ME was reported in % and results calculated to obtain M±SEM for each treatment group for all correct responses using data for the four highest odor concentrations presented (from 10^−2M—an absolute odor concentration).
In addition, each patient graded the hedonic (H) value of each odor presented for these same odor concentrations (from 10^−2M—an absolute odor concentration using a −100−0−+100 scale). […] Results were obtained by calculating the arithmetical sum of each correct recognition response for each odor with respect to its pleasantness, unpleasantness or neutrality. Arithmetic M±SEM were obtained for each treatment group for each odor presented.
After determination of hyposmia, patients were treated in an open label, fixed design, controlled open trial. Patients were given an oral extended release theophylline in divided daily doses taken in the middle of breakfast and lunch. All patients were initially given 200 mg of theophylline; changes in this dose were made based upon subjective responses to therapy. If at a subsequent return visit, patients reported ≥5% subjective improvement in overall smell function, they continued on this same dose of theophylline and were reevaluated after four to six months of continued treatment. Results from any subsequent return from these improved patients were not included in any subsequent data report. All subsequent comparisons between treated and untreated patients were made only between those patients continuing in the study compared to their own measurements obtained in the untreated state. If patients reported <5% subjective improvement, their theophylline dose was increased by 200 mg daily and they were scheduled for retesting at the study site after two to four months at this new dosage. For patients that reported <5% improvement, this sequence continued until patients reached 800 mg of theophylline, at which time the study was considered completed.
Patients returned for reevaluation after two to four months of treatment. Measurements of blood serum theophylline were measured by a fluorescence polarization assay (Abbott, Chicago, Ill.). At this time, subjective changes in smell function were measured independently (compared to patient's memory of previous normal smell function monitored by use of the patients' daily measurements) using the scale from −100−0-+100 previously described. After independently recording their subjective responses, smell function was measured for all four odors with DT, RT, ME and H determined without recourse to prior measurements.
Since data for all measurements from each patient group (local or distant) on each dose level were combined mean and SEM for each measurement (DT, RT, ME, H) of smell function for each treatment group were calculated on this basis. Differences in measurements between before treatment and each treatment level were calculated and significance of differences estimated using Student t tests (values p<0.05 considered significant). […]

[1] = amyl acetate, oral theophylline 200 mg
[2] = amyl acetate, oral theophylline 200 mg daily, all patients (199)
[3] = amyl acetate, oral theophylline 200 mg, Type I hyposmia (57)
[4] = amyl acetate, oral theophylline 200 mg, Type II hyposmia (138)
[5] = amyl acetate, oral theophylline 200 mg, Type III hyposmia (4)
[6] = amyl acetate, oral theophylline 400 mg
[7] = amyl acetate, oral theophylline 400 mg daily, all patients (120)
[8] = amyl acetate, oral theophylline 400 mg, Type I hyposmia (33)
[9] = amyl acetate, oral theophylline 400 mg, Type II hyposmia (85)
[10] = amyl acetate, oral theophylline 400 mg, Type III hyposmia (2)
[11] = amyl acetate, oral theophylline 600 mg daily, all patients (160)
[12] = amyl acetate, oral theophylline 600 mg, Type I hyposmia (51)
[13] = amyl acetate, oral theophylline 600 mg, Type II hyposmia (105)
[14] = amyl acetate, oral theophylline 600 mg, Type III hyposmia (4)
[15] = amyl acetate, oral theophylline 800 mg daily, all patients (28)
[16] = amyl acetate, oral theophylline 800 mg, Type I hyposmia (12)
[17] = amyl acetate, oral theophylline 800 mg, Type II hyposmia (16)
[18] = nitrobenzene, oral theophylline 200 mg
[19] = nitrobenzene, oral theophylline 200 mg daily, all patients (199)
[20] = nitrobenzene, oral theophylline 200 mg, Type I hyposmia (57)
[21] = nitrobenzene, oral theophylline 200 mg, Type II hyposmia (138)
[22] = nitrobenzene, oral theophylline 200 mg, Type III hyposmia (4)
[23] = nitrobenzene, oral theophylline 400 mg
[24] = nitrobenzene, oral theophylline 400 mg daily, all patients (120)
[25] = nitrobenzene, oral theophylline 400 mg, Type I hyposmia (33)
[26] = nitrobenzene, oral theophylline 400 mg, Type II hyposmia (85)
[27] = nitrobenzene, oral theophylline 400 mg, Type III hyposmia (2)
[28] = nitrobenzene, oral theophylline 600 mg daily, all patients (160)
[29] = nitrobenzene, oral theophylline 600 mg, Type I hyposmia (51)
[30] = nitrobenzene, oral theophylline 600 mg, Type II hyposmia (105)
[31] = nitrobenzene, oral theophylline 600 mg, Type III hyposmia (4)
[32] = nitrobenzene, oral theophylline 800 mg daily, all patients (28)
[33] = nitrobenzene, oral theophylline 800 mg, Type I hyposmia (12)
[34] = nitrobenzene, oral theophylline 800 mg, Type II hyposmia (16)

Cn1c(=O)c2[nH]cnc2n(C)c1=O [theophylline]
increase of H values (more pleasant) [1]: 2% | increase of ME values [1]: 5% | DT, detection threshold [2]: 7.9 ± 0.2^c BU | H, hedonic estimation [2]: 3 ± 1% | ME, magnitude estimation [2]: 15 ± 2^d % | RT, recognition threshold [2]: 9.9 ± 0.2^c BU | DT, detection threshold [3]: 10.5 ± 0.3^d BU | H, hedonic value [3]: 4 ± 2^a % | ME, magnitude estimation [3]: 6 ± 2^a % | RT, recognition threshold [3]: 11.3 ± 0.2^ BU | DT, detection threshold [4]: 7.0 ± 0.3^ BU | H, hedonic value [4]: 3 ± 2^ % | ME, magnitude estimation [4]: 19 ± 2^ % | RT, recognition threshold [4]: 9.3 ± 0.2^ BU | DT, detection threshold [5]: 2.8 ± 0.5 BU | H, hedonic value [5]: 14 ± 13% | ME, magnitude estimation [5]: 32 ± 10% | RT, recognition threshold [5]: 5.2 ± 1.6 BU | ME increases [6]: 8% | change of H values (became more pleasant) [6]: 1% | DT, detection threshold [7]: 7.1 ± 0.3^b BU | H, hedonic estimation [7]: 3 ± 2^ % | ME, magnitude estimation [7]: 18 ± 2^c % | RT, recognition threshold [7]: 9.3 ± 0.3^b BU | DT, detection threshold [8]: 10.1 ± 0.5^a BU | H, hedonic value [8]: 5 ± 3^a % | ME, magnitude estimation [8]: 7 ± 3^a % | RT, recognition threshold [8]: 11.2 ± 0.3^ BU | DT, detection threshold [9]: 6.1 ± 0.4^a BU | H, hedonic value [9]: 0.3 ± 2.8^ % | ME, magnitude estimation [9]: 21 ± 3^ % | RT, recognition threshold [9]: 8.8 ± 0.4^a BU | DT, detection threshold [10]: 2 BU | H, hedonic value [10]: 75% | ME, magnitude estimation [10]: 75% | RT, recognition threshold [10]: 3 BU | DT, detection threshold [11]: 7.8 ± 0.3^a BU | H, hedonic estimation [11]: 4 ± 1^ % | ME, magnitude estimation [11]: 15 ± 2^c % | RT, recognition threshold [11]: 9.6 ± 0.2^a BU | DT, detection threshold [12]: 10.1 ± 0.3^a BU | H, hedonic value [12]: −0.4 ± 1^ % | ME, magnitude estimation [12]: 5 ± 2^a % | RT, recognition threshold [12]: 11.1 ± 0.2^ BU | DT, detection threshold [13]: 6.8 ± 0.3^a BU | H, hedonic value [13]: 7 ± 2^ % | ME, magnitude estimation [13]: 19 ± 2^ % | RT, recognition threshold [13]: 8.9 ± 0.3^a BU | DT, detection threshold [14]: 2.5 ± 1.0 BU | H, hedonic value [14]: 28 ± 19% | ME, magnitude estimation [14]: 31 ± 17% | RT, recognition threshold [14]: 4.8 ± 1.7 BU | DT, detection threshold [15]: 7.2 ± 0.8^ BU | H, hedonic estimation [15]: 8 ± 5^ % | ME, magnitude estimation [15]: 24 ± 2^a % | RT, recognition threshold [15]: 9.0 ± 0.5^b BU | DT, detection threshold [16]: 10.6 ± 0.5^ BU | H, hedonic value [16]: −1 ± 4^ % | ME, magnitude estimation [16]: 5 ± 3^a % | RT, recognition threshold [16]: 11.6 ± 0.4^ BU | DT, detection threshold [17]: 4.6 ± 0.7^a BU | H, hedonic value [17]: 13 ± 9^ % | ME, magnitude estimation [17]: 38 ± 6^c % | RT, recognition threshold [17]: 7.1 ± 0.6^a BU | increase of H values (more pleasant) [18]: 2% | increase of ME values [18]: 5% | DT, detection threshold [19]: 7.8 ± 0.2^d BU | H, hedonic estimation [19]: 6 ± 2^a % | ME, magnitude estimation [19]: 17 ± 2 ^ % | RT, recognition threshold [19]: 9.5 ± 0.2^a BU | DT, detection threshold [20]: 10.3 ± 0.3^a BU | H, hedonic value [20]: 4 ± 2^a % | ME, magnitude estimation [20]: 5 ± 2^a % | RT, recognition threshold [20]: 11.2 ± 0.2^d BU | DT, detection threshold [21]: 6.9 ± 0.3^a BU | H, hedonic value [21]: 7 ± 2^ % | ME, magnitude estimation [21]: 22 ± 2^ % | RT, recognition threshold [21]: 8.8 ± 0.3^ BU | DT, detection threshold [22]: 3.8 ± 0.7 BU | H, hedonic value [22]: 13 ± 12% | ME, magnitude estimation [22]: 33 ± 8% | RT, recognition threshold [22]: 5.0 ± 0.6 BU | ME increases [23]: 11% | change of H values (became more pleasant) [23]: 4% | DT, detection threshold [24]: 7.2 ± 0.3^c BU | H, hedonic estimation [24]: 8 ± 3^a % | ME, magnitude estimation [24]: 23 ± 2^a % | RT, recognition threshold [24]: 8.9 ± 0.3^b BU | DT, detection threshold [25]: 9.8 ± 0.5^a BU | H, hedonic value [25]: 3 ± 3^a % | ME, magnitude estimation [25]: 8 ± 3^a % | RT, recognition threshold [25]: 10.9 ± 0.4^e BU | DT, detection threshold [26]: 6.3 ± 0.4^a BU | H, hedonic value [26]: 11 ± 3^ % | ME, magnitude estimation [26]: 27 ± 3^a % | RT, recognition threshold [26]: 8.2 ± 0.4^a BU | DT, detection threshold [27]: 2.5 BU | H, hedonic value [27]: −62% | ME, magnitude estimation [27]: 79% | RT, recognition threshold [27]: 4.0 BU | DT, detection threshold [28]: 7.8 ± 0.3^a BU | H, hedonic estimation [28]: 8 ± 2^d % | ME, magnitude estimation [28]: 18 ± 2^d % | RT, recognition threshold [28]: 9.1 ± 0.2^c BU | DT, detection threshold [29]: 9.9 ± 0.4^c BU | H, hedonic value [29]: 2 ± 2^ % | ME, magnitude estimation [29]: 6 ± 2^a % | RT, recognition threshold [29]: 10.8 ± 0.3^ BU | DT, detection threshold [30]: 6.8 ± 0.3^a BU | H, hedonic value [30]: 11 ± 2^ % | ME, magnitude estimation [30]: 24 ± 2^ % | RT, recognition threshold [30]: 8.4 ± 0.3^ BU | DT, detection threshold [31]: 3.8 ± 0.9 BU | H, hedonic value [31]: 12 ± 16% | ME, magnitude estimation [31]: 33 ± 13% | RT, recognition threshold [31]: 4.5 ± 1.3 BU | DT, detection threshold [32]: 7.0 ± 0.8^d BU | H, hedonic estimation [32]: 13 ± 7 ^ % | ME, magnitude estimation [32]: 25 ± 6 ^ % | RT, recognition threshold [32]: 7.8 ± 0.8^d BU | DT, detection threshold [33]: 10.1 ± 0.8^ BU | H, hedonic value [33]: 2 ± 2^a % | ME, magnitude estimation [33]: 4 ± 3^a % | RT, recognition threshold [33]: 11.3 ± 0.7^ BU | DT, detection threshold [34]: 4.6 ± 0.9^a BU | H, hedonic value [34]: 22 ± 11^ % | ME, magnitude estimation [34]: 42 ± 8^b % | RT, recognition threshold [34]: 5.1 ± 0.9^a BU | total mean increase of ME for all odors (oral theophylline 200 mg): 5.1% | increase of H values for amyl acetate (oral theophylline 200 mg daily, not statistically significant): 50% | total mean increase of ME for all odors (oral theophylline 400 mg): 10.4% | decrease of H values for thiophene (oral theophylline 400 mg daily): 40% | increase of H values for nitrobenzene (oral theophylline 400 mg daily, not statistically significant): 50%
